Assays:
[1] = Acute intervention: nutrikinetics of plasma metabolites after ingestion of L. citriodora extract (untargeted HPLC-ESI-QTOF-MS)
Method: (§1) A total of 25 healthy individuals participated, with an average age of 27 ± 9 years and a mean body mass index (BMI) of 23 ± 3 kg/m^2. None of the participants were taking any medications or nutritional supplements nor did they have any chronic diseases or gastrointestinal issues. The sample size was established based on findings from previous bioavailability research.[14] All participants provided informed consent before participating in the study.
(§2) The intervention study was carried out at Miguel Hernández University. Following an overnight fast, the volunteers were categorized into the subsequent groups: a subgroup to evaluate the LC leaf extract (n = 8), another for the OE leaf extract (n = 8), and the placebo subgroup (n = 9). This was a double-blind study, in which sample collection and treatment were carried out uniformly across all three subgroups.
(§3) Water was provided ad libitum. Prior to the ingestion of the capsule, a nurse inserted a cannula into the ulnar vein of each volunteer’s nondominant arm, and blood samples were drawn into EDTA-coated tubes at baseline (t = 0). Blood samples were then collected at 0.5, 1, 2, 4, 6, 8, and 10 h after the consumption of the 500 mg capsule. Plasma was separated through centrifugation (10 min at 3000 rpm and 4 °C) and stored at −80 °C until further analysis.
(§4) Plasma samples were initially treated using a mixture of methanol and ethanol (50:50; v:v) to remove proteins, following previously reported protocols.[19] During the sample treatment, pooled quality controls (pooled-QC) were prepared by combining equal aliquots from each sample. These QC samples were processed by using the same protocols as the experimental biological samples.
(§5) A reversed-phase analytical C18 column (Agilent Zorbax Eclipse Plus, 1.8 μm, 4.6 × 150 mm^2) with a protective cartridge with the same packing was used. MS data were acquired in negative ionization mode, operating in full scan across a mass-to-charge ratio (m/z) range of 50–1700. The analytical method used was adapted from that described by Villegas-Aguilar et al.[19]
(§6) Metabolite nutrikinetics were studied using PKSolver, an add-in program for pharmacokinetic data analysis in Microsoft Excel. The time to reach the maximum concentration (observed Tmax) was calculated for each significant metabolite. As an untargeted metabolomic approach was used to detect the circulating metabolites, these were not quantified. Therefore, the maximum concentration (Cmax) and area under the curve (AUC) parameters were calculated in a relative way by using the deconvoluted chromatographic areas. […] Statistical differences were determined by unpaired t tests. All p values less than 0.05 were considered statistically significant.

[2] = Acute intervention: nutrikinetics of plasma metabolites after ingestion of O. europaea extract (untargeted HPLC-ESI-QTOF-MS)
Method: as §1, §2, §3, §4, §5, §6

[3] = 0.5 h after L. citriodora extract
[4] = 1 h after L. citriodora extract
[5] = 2 h after L. citriodora extract
[6] = 4 h after L. citriodora extract
[7] = 6 h after L. citriodora extract
[8] = 8 h after L. citriodora extract
[9] = 10 h after L. citriodora extract
[10] = human plasma, 500 mg capsule of L. citriodora (LC) extract, oral, mean ± SD
[11] = 0.5 h after O. europaea extract
[12] = human plasma, 500 mg capsule of O. europaea (OE) extract, oral, mean ± SD

Row | Molecule | mean chromatographic area in plasma, T0.5 [1, 3] | mean chromatographic area in plasma, T1 [1, 4] | mean chromatographic area in plasma, T2 [1, 5] | mean chromatographic area in plasma, T4 [1, 6] | mean chromatographic area in plasma, T6 [1, 7] | mean chromatographic area in plasma, T8 [1, 8] | mean chromatographic area in plasma, T10 [1, 9] | AUC: area under the zero-moment curve [1, 10] | Cmax: relative maximum plasma level [1, 10] | observed Tmax: time required to reach Cmax [1, 10] | mean chromatographic area in plasma, T0.5 [2, 11] | mean chromatographic area in plasma, T1 ([2]; 1 h after O. europaea extract) | mean chromatographic area in plasma, T2 ([2]; 2 h after O. europaea extract) | mean chromatographic area in plasma, T4 ([2]; 4 h after O. europaea extract) | mean chromatographic area in plasma, T6 ([2]; 6 h after O. europaea extract) | mean chromatographic area in plasma, T8 ([2]; 8 h after O. europaea extract) | mean chromatographic area in plasma, T10 ([2]; 10 h after O. europaea extract) | Cmax: relative maximum plasma level [2, 12] | observed Tmax: time required to reach Cmax [2, 12] | also measured
1 | hydroxytyrosol sulfate [hydroxytyrosol sulfate isomer 2] | 0 | 0 | 138 | 289 | 575 | 591 | 686 | 3802 ± 2564 relative chromatographic area/h | 902 ± 428 relative chromatographic area | 8 ± 2 h | 336 | 646 | 605 | 202 | 235 | 140 | 202 | 836 ± 359 relative chromatographic area | 3 ± 3 h | observed Tmax: time required to reach Cmax ([1]; human plasma, 500 mg capsule of L. citriodora (LC) extract, oral, mean ± SD, listed as hydroxytyrosol sulfate): 7 ± 2 h; observed Tmax: time required to reach Cmax ([2]; human plasma, 500 mg capsule of O. europaea (OE) extract, oral, mean ± SD, listed as hydroxytyrosol sulfate): 1 h
2 | COc1cc(C(=O)O)ccc1OS(=O)(=O)O [vanillic acid 4-O-sulfate isomer 1, vanillic acid 4-O-sulfate] | 0 | 0 | 97 | 395 | 548 | 588 | 365 | 3576 ± 3122 relative chromatographic area/h | 874 ± 644 relative chromatographic area | 8 ± 3 h | 275 | 489 | 354 | 279 | 216 | 137 | 60 | 489 ± 147 relative chromatographic area | 1.0 ± 0.0 h | 
3 | homovanillic acid glucuronide |  |  |  |  |  |  |  |  |  |  |  |  |  |  |  |  |  |  |  | AUC: area under the zero-moment curve ([1]; human, in vivo, po, 500 mg): 1345 ± 1042 relative chromatographic area/h; Cmax: relative maximum plasma level ([1]; human, in vivo, po, 500 mg): 360 ± 219 relative chromatographic area; mean chromatographic area in plasma, T0.5 ([1]; in vivo): 0; mean chromatographic area in plasma, T1 ([1]; in vivo): 0; mean chromatographic area in plasma, T2 ([1]; in vivo): 0; mean chromatographic area in plasma, T4 ([1]; in vivo): 114; mean chromatographic area in plasma, T6 ([1]; in vivo): 232; mean chromatographic area in plasma, T8 ([1]; in vivo): 219; mean chromatographic area in plasma, T10 ([1]; in vivo): 214; Cmax: relative maximum plasma level ([2]; human, in vivo, po, 500 mg): 199 ± 54 relative chromatographic area; mean chromatographic area in plasma, T0.5 ([2]; in vivo): 13; mean chromatographic area in plasma, T1 ([2]; in vivo): 94; mean chromatographic area in plasma, T2 ([2]; in vivo): 99; mean chromatographic area in plasma, T4 ([2]; in vivo): 182; mean chromatographic area in plasma, T6 ([2]; in vivo): 141; mean chromatographic area in plasma, T8 ([2]; in vivo): 80; mean chromatographic area in plasma, T10 ([2]; in vivo): 58
4 | COc1cc(C=CC(=O)O)ccc1OS(=O)(=O)O [ferulic acid 4-sulfate] | 33 | 131 | 259 | 230 | 222 | 152 | 39 | 1752 ± 1781 relative chromatographic area/h | 354 ± 254 relative chromatographic area | 3 ± 2 h | 0 | 78 | 84 | 22 | 18 | 0 | 0 | 142 ± 20 relative chromatographic area | 1.6 ± 0.5 h | 
5 | hydroxytyrosol glucuronide [hydroxytyrosol glucuronide isomer 2] | 0 | 0 | 0 | 48 | 81 | 34 | 23 | 350 ± 158 relative chromatographic area/h | 106 ± 17 relative chromatographic area | 8 ± 2 h | 1726 | 2553 | 1437 | 507 | 251 | 161 | 75 | 2627 ± 1167 relative chromatographic area | 0.9 ± 0.2 h | observed Tmax: time required to reach Cmax ([1]; human plasma, 500 mg capsule of L. citriodora (LC) extract, oral, mean ± SD, listed as hydroxytyrosol glucuronide): 7 ± 2 h; observed Tmax: time required to reach Cmax ([2]; human plasma, 500 mg capsule of O. europaea (OE) extract, oral, mean ± SD, listed as hydroxytyrosol glucuronide): 1 h
